Measured values published in patent US8389728B2, “Pollen tube stimulants from Arabidopsis pistils” (The Arizona Board of Regents, priority 2009, dated 2013).

Tests used:
[1] = tested on: Arabidopsis pollen; test: Time lapse imaging of pollen germination and pollen tube growth; assay type: cell-based, Arabidopsis thaliana; settings: for initiation of germination compared to no compound controls: 0.02 mg compound in 50 μL PGM, time lapse > 12 hours; for rate of pollen germination (in words): 0.02 mg compound in 50 μL of pollen growth medium
Protocol: (§1) Using the optimal concentration of compound for pollen tube stimulation (0.02 mg compound dispensed into 50 μL of pollen growth medium) pollen tube growth were time lapse imaged for a duration of greater than 12 hours. […] For example, Landsberg pollen grew about 130 μm longer in the presence of compound A compared to compound B (FIG. 11B).

[2] = tested on: pollen from the Arabidopsis Columbia strain; test: Time course of pollen germination and tube growth, Columbia strain; assay type: cell-based, Arabidopsis thaliana
Protocol: as §1

[3] = tested on: pollen from the Landsberg strain; test: Time course of pollen germination and tube growth, Landsberg strain; assay type: cell-based, Arabidopsis thaliana; settings: 0.02 mg compound
Protocol: as §1

[4] = tested on: Arabidopsis thaliana, ecotype Columbia; test: Stimulation of pollen germination and pollen tube growth in vivo (seed yield); settings: sprayed onto plants after blossoms open
Source text: The stimulation of pollen germination in vivo may be achieved by applying an effective amount of one or both Compound A or Compound B, or functional derivative thereof, to a plant, such as Arabidopsis thaliana, ecotype Columbia, or another plant that is sufficiently evolutionarily related to Arabidopsis, such as a member of family Brassicaceae. The pollen growth stimulant can be applied in any formulation such as described herein and by any method of applying a compound to the flower of a plant. For example, an effective amount of Compound A can be sprayed onto any given number of plants in an area after blossoms open and pistils are exposed.

[5] = Han et al. 2007; cited from earlier work

## C[S+]([O-])N1CCCC2CCCCC21 (stereo not drawn) [Compound A, 1-Methylsulfinyldecahydroquinoline]
[1]
  initiation of germination compared to no compound controls: approximately two hours earlier
  rate of pollen germination (in words): enhanced the rate of pollen germination
[2]
  extent of pollen growth, compound A versus B (in words): grew to a similar extent
[3]
  additional pollen tube length in the presence of compound A compared to compound B: about 130 μm
[4]
  seed yield of plants exposed versus not exposed: increased seed yield

## C[S+]([O-])N1CCC2CCCCC2C1 (stereo not drawn) [Compound B, 2-Methylsulfinyldecahydroisoquinoline]
[1]
  initiation of germination compared to no compound controls: approximately two hours earlier
  rate of pollen germination (in words): enhanced the rate of pollen germination
[2]
  extent of pollen growth, compound A versus B (in words): grew to a similar extent

## O=c1c(O)c(-c2ccc(O)cc2)oc2cc(O)cc(O)c12 [kaempferol]
[5]
  solubility in ethyl acetate: highly soluble in ethyl acetate
